We go through one compound from patent US20020142942A1, “Method for treating premenstrual or late luteal phase syndrome” (Merck & Co. Inc., priority 1997, published 2002).

Assay [1] has as its system cisplatin-induced emesis in ferrets. Nature of the assay: Ferret emesis assay. The format is in vivo. Particulars: p.o. Here is the method:
Ferret Emesis Assay Individually housed male ferrets (1.0-2.5 kg) are dosed orally by gavage with test compound. Ten minutes later they are fed with approximately 100 g of tinned cat food. At 60 minutes following oral dosing, cisplatin (10 mg(kg) is given i.v. via a jugular vein catheter inserted under a brief period of halothane anaesthesia. The catheter is then removed, the jugular vein ligated and the skin incision closed. The ferrets recover rapidly from the anaesthetic and are mobile within 10-20 minutes. The animals are observed continuously during recovery from the anaesthetic and for 4 hours following the cisplatin injection, after which time the animals are killed humanely. The numbers of retches and vomits occurring during the 4 hours after cisplatin administration are recorded by trained observers.

For assay [2], the system named is women with premenstrual syndrome. Put plainly: Double-blind, placebo-controlled study of mood and appetite disturbances associated with premenstrual syndrome. In kind it is in vivo. Particulars: 30 mg/day, compared with placebo, Hamilton Depression Scale and PMS/LLPD Symptom Rating Scale. Here is the method: Double-Blind, Placebo-Controlled Study to Determine the Effect of a Substance P Antagonist on Mood and Appetite Disturbances Associated with Premenstrual Syndrome in Women.
Approximately twenty women receive either the substance P receptor antagonist 2-(R)-(1-(R)-(3,5-bis(trifluoromethyl)phenyl)ethoxy)-3-(S)-(4-fluorophenyl)-4-(3-(5-oxo-1H,4H-1,2,4-triazolo)methyl-morpholine (30 mg/day) or a placebo starting approximately two weeks prior to their expected menstrual period. Each subject participates in 6 randomized test periods; in 3 of the test periods, each is given the substance P antagonist and in the other 3 test periods, is given a placebo. Mood is assessed 1-3 days before the onset of menses, using the Hamilton Depression Scale and the PMS/LLPD Symptom Rating Scale, for mood and appetite symptoms. Hamilton, N., Journal of Neurosurgery and Psychiatry, 23:56-62 (1960); Steiner, M. et al., Acta Psychiatrica Scandinavia, 62:177-190 (1980). Food intake is measured through the use of self-reports (when subjects were out-patients), and directly (while subjects were inpatients), during one drug and one placebo period; subjects also are weighed. The results between the test periods are compared and the results for each subject are evaluated.

Assay [3] concerns distress vocalisations in guinea-pig pups. Put plainly: Separation-induced vocalisation assay. In kind it is in vivo, guinea-pigs. Particulars: p.o. An excerpt:
Separation-Induced Vocalisation Assay Male and female guinea-pigs pups are housed in family groups with their mothers and littermates throughout the study. Experiments are commenced […] when the pups are 2 weeks old. Before entering an experiment, the pups are screened to ensure that a vigorous vocalisation response is reproducibly elicited following maternal separation. The pups are placed individually in an observation cage (55 cm×39 cm×19 cm) in a room physically isolated from the home cage for 15 minutes and the duration of vocalisation during this baseline period is recorded. Only animals which vocalise for longer than 5 minutes are employed for drug challenge studies (approximately 50% of available pups may fail to reach this criterion). On test days each pup receives an oral dose or a s.c. or i.p. injection of test compound or vehicle and is then immediately returned to the home cage with its mother and siblings for 30 minutes to 60 minutes (or for up to 4 hours following an oral dose, dependant upon the oral pharmacokinetics of the test compound) before social isolation for 15 minutes as described above. The duration of vocalisation on drug treatment days is expressed as a percentage of the pre-treatment baseline value for each animal. The same subjects are retested once weekly for up to 6 weeks. Between 6 and 8 animals receive each test compound at each dose tested. […]

Assay [4] relates to foot tapping in gerbils induced by central injection of an NK1 agonist. Nature of the assay: Gerbil foot-tapping assay. In kind it is in vivo, Mongolian gerbils. Particulars: i.v. An excerpt: Gerbil Foot-Tapping Assay CNS penetrant NK-1 receptor antagonists for use in the present invention can be identified by their ability to inhibit foot tapping in gerbils induced by anxiogenic agents (such as pentagastrin) or central infusion of NK-1 receptor agonists such as GR73632, or caused by aversive stimulation such as foot shock or single housing, based on the method of Rupniak & Williams, Eur. J. Pharmacol., 1994, 265, 179. Male or female Mongolian gerbils (35-70 g) are anaesthetised by inhalation of an isoflurane/oxygen mixture to permit exposure of the jugular vein in order to permit administration of test compounds or vehicle in an injection volume of 5 ml/kg i.v. Alternatively, test compounds may be administered orally or by subcutaneous or intraperitoneal routes. The wound is closed and a second skin incision is made in the midline of the scalp to expose the skull. […] The duration and/or intensity of hind foot tapping is then recorded continuously for 5 minutes. Alternatively, the ability of test compounds to inhibit foot tapping evoked by aversive stimulation, such as foot shock or single housing, may be studied using a similar method of quantification.

In the case of `C[C@@H](O[C@H]1OCCN(Cc2n[nH]c(=O)[nH]2)[C@H]1c1ccc(F)cc1)c1cc(C(F)(F)F)cc(C(F)(F)F)c1` [2-(R)-(1-(R)-(3,5-bis(trifluoromethyl)-phenyl)-ethoxy)-3-(S)-(4-fluorophenyl)-4-(3-(5-oxo-1H,4H-1,2,4-triazolo)methyl)-morpholine], the “ferret emesis: ID90” value in assay [1] is reported as “ID90 = <3 mg/kg p.o”. For the same compound, the “effect in decreasing depression and other negative mood states” value in assay [2] is given as “positive effect with respect to placebo”. Besides, the “guinea-pig vocalisation (4 hr. pre-treatment): ID50” value in assay [3] is “ID50 = 0.73 mg/kg p.o”. Further, the “gerbil foot-tapping (5 mins.): IC50” value in assay [4] (5 mins.) is on record as “IC50 = 0.36 mg/kg i.v”. For the same compound, the “gerbil foot-tapping (24 hrs.): IC50” value in assay [4] (24 hrs.) is given as “IC50 = 0.33 mg/kg i.v”.
